Values of other authors in US20040146462A1, “Contrast agents” (priority 1998, published 2004).

System: coronary blood flow in healthy myocardial tissue
Settings: administration of adenosine

Compound: Nc1ncnc2c1ncn2[C@@H]1O[C@H](CO)[C@@H](O)[C@H]1O [adenosine]
- increase in coronary blood flow in healthy myocardial tissue: in excess of fourfold
